Reference: patent publication US9714245B2, “Carboline compounds usable in the treatment of neurodegenerative diseases” (ALZPROTECT, priority 2013, dated 2017)

How the values were obtained:
AICD = assay: Quantification of AICD by Western blot in SY5Y-APPWT cells; assay type: cell-based, Human; details: compared to a control with a value of 100
Method: (§1) Quantifications of APP-CTFs and AICD
(§2) After treatment, SY5Y-APP^WT cells were scrapped and lysed in 1× Lysis Buffer (250 mM NaCl, 50 mM Tris, pH 8.8, 5 mM EDTA, 2.5% Triton X-100, 1% Deoxycholate, 0.1% SDS). For the Western blotting, an equal amount of total proteins (20 μg/lane) was loaded on a 16.5% Tris-Tricine or 8-16% Tris-Glycine polyacrylamide gel.
(§3) SDS-polyacrylamide gel electrophoresis (PAGE) was performed using the Criterion™ Tris-Tricine-precast or Bis-Tris-precast criterion gels (Bio-Rad Bioresearch division). Proteins were transferred to a […] nitrocellulose membrane (Hybond, Amersham Biosciences) at 2.5 mA/cm2 per gel using the Criterion™ Blotter system (Amersham Biosciences), according to the manufacturer's instructions. Proteins were reversibly stained with Ponceau Red in order to check the quality of the transfer of protein. The membranes were blocked in 25 mM Tris-HCl pH 8.0, 150 mM NaCl, 0.1% Tween-20 (v/v) and 5% (w/v) of skimmed milk for 30 min. Membranes were incubated overnight at 4° C. with appropriate dilution of the primary antibodies, and were incubated for 1 h at room temperature with secondary antibody. […] Quantifications were calculated with Image J software (NIH) and the data were collected using Excel Software (Microsoft). The loading variations between Western blot lanes were normalized according to the tubulin signal. Quantification of CTFα and AICD were compared to control conditions (considered as 100 in arbitrary units) and are presented for two concentrations of the drug: 1 and 10 μM.

CTFα = assay: Quantification of APP-CTFα by Western blot in SY5Y-APPWT cells; assay type: cell-based, Human; details: compared to a control with a value of 100
Method: as §1, §2, §3

## CC(C)CN(CCCN1CCN(CCCN2CCc3[nH]c4ccc(F)cc4c3C2)CC1)CC(C)C [Compound 3.1d, N,N-diisobutyl-3-(4-(3-(8-fluoro-1,3,4,5-tetrahydro-1H-pyrido[4,3-b]indol-2-yl)propyl)piperazin-1-yl)propylamine]
AICD
  AICD (10 μM): 84225 arbitrary units
CTFα
  CTFα (10 μM): 1011 arbitrary units
